The test system of series [1] is Tar13. The experiment in a line: Tar13 in vitro assay with substrate analogues. Type of series: biochemical, Saccharomonospora sp. CNQ-490. As for the experimental part: Tar13. Upon testing different reaction compositions (buffers, concentration of ascorbic acids and hemin, pH), the following conditions were found as optimal:
Buffer: up to 50 μL (50 mM Tris, 500 mM NaCl 10% glycerol, pH 8.0)
(§1) In a separate Eppendorf tube premix:
Add substrate solution to the enzyme mixture to start reaction
When Tar13 was directly added to the enzyme reaction, immediate protein precipitation occurred. The same was observed if the enzyme was not pre-mixed with hemin and ascorbic acid. Full substrate conversion was achieved after overnight incubation at 30° C. in 1.5 mL Eppendorf tube with shaking. The reactions were quenched by addition of equal volume of HPLC grade methanol.

In series [2] the test system is Tar14. Description: Tar14 in vitro halogenation assay with substrate analogues. Type of series: biochemical, Saccharomonospora sp. CNQ-490. As for the experimental part: Tar14. Tar14 reaction mixture of total volume 100 μL in 1.5 mL Eppendorf tube was composed of the following components:
Buffer (10 mM Tris, 10% glycerol, pH 7.6): up to 100 μL

Series [3] relates to Tar16. Description: Coupled Tar13/Tar16 assay (Tar16 substrate generated in situ by Tar13). The class given is biochemical, Saccharomonospora sp. CNQ-490. The following applies: substrates generated in situ by Tar13; Tar16 10 μM; overnight at 30° C. As for the experimental part:
Coupled Tar13 Tar]6. The reaction mixture of total volume 100 μL in 1.5 mL Eppendorf tube was composed of the following components:
Buffer: up to 50 μL (50 mM Tris, 500 mM NaCl 10% glycerol, pH 8.0
Substrate (for Tar13 enzyme): 0.25 μM
as §1
Buffer: up to […] (50 mM Tris, 500 mM NaCl 10% glycerol, pH 8.0)
Add substrate solution to the enzyme mixture to start reaction.
No difference in conversion was observed when Tar16 was added into the assay mixture either together with Tar13, or after 2 h of incubation at 30° C., or after overnight incubation at 30° C., followed by another 4 h of incubation after addition of Tar16. Therefore, for convenience, all components were mixed at the same time point, the reactions were incubated at 30° C. overnight, after which the assays were quenched by addition of equal volume of HPLC grade methanol.

The subject of series [4] is Tar13 Tar14 Tar16. Description: One-pot Tar13/Tar14/Tar16 conversion of L-Trp to L-4-Cl-Kyn. The class given is biochemical, Saccharomonospora sp. CNQ-490. On the procedure:
Buffer: up to 100 μL (50 mM Tris, 500 mM NaCl (or KBr) 10% glycerol, pH 8.0)
(§2) Tar14 (added last): 2.5 μM
Incubate 45 min at 30° C., followed by addition of premixed:
Buffer: up to 50 μL (50 mM Tris, 500 mM NaCl (or KBr) 10% glycerol, pH 8.0)
The reactions were incubated at 30° C. overnight, after which the assays were quenched by addition of equal volume of HPLC grade methanol and frozen at −70° C. till further analysis by LCMS.

Series [5] relates to S. coelicolor M1146-tarM1Δtar14. Description: Feeding/chemical complementation experiment, incorporation into taromycin. The following applies: incorporation at residue-1 and residue-13; analogue fed at 2 mM; judged by comparison to taromycin yields by S. coelicolor M1146-tarM1. The class given is cell-based, Streptomyces coelicolor. As for the experimental part:
For taromycin production, seed culture in TSBY medium was inoculated with corresponding S. coelicolor spore suspension (collected from fresh SFM plates) and was cultured for 36-48 h till a dense creamy consistency was reached. Kanamycin at 10 μg mL^−1 final concentration was added to the seed cultures of S. coelicolor M1146-pCAP01-tarM1 and S. coelicolor M1146-pCAP01-tarM1Δtar14. Inocula of seed culture (5%, v/v) were used for fermentation in MP medium (1% glucose, 1% soluble starch, 0.4% peptone, 0.3% yeast extract, 0.3% soytone, 0.2% meat extract, 0.2% CaCO3, and 0.5% NaCl, pH 7.2). Fermentation was carried out at 30° C. and 220 rpm in a rotary incubator for 6 days. A maximum of 40 mL of production medium was added into 250 mL flask with metal springs.
S. coelicolor M1146-pCAP01-tarM1Δtar14 cultures were grown as described in Section 3 for taromycin production. After 18 and 36 h of cultivation, tryptophan analogues in the form of water suspension were added to the production cultures to a final concentration 2 mM. The cultures were further incubated for 5 days before extraction and further analysis by LC-HRMS^n. All experiments were repeated independently twice with three replicates for each compound. In parallel, cultures of S. coelicolor M1146-pCAP01-tarM1 and S. coelicolor M1146-pCAP01-tarM1Δtar14 were grown as controls.
To analyze production of taromycins and analogues, solid phase extraction of the culture supernatants was performed with Amberlite XAD-16 resin (SIGMA). For analytical purposes around 1 g of washed and equilibrated resin was added to 20 mL of supernatant followed by shaking for 30-60 min. Samples were then spun down and decanted. The resin was washed twice with water (15 mL), before elution with methanol (5 mL). The methanol extracts from the resin were used for LCMS analysis without additional concentration step.

A short description of series [6]: Deformylation of N-formyl-L-4-Cl-Kyn on purification/lyophilization. Particulars: mildly acidic purification conditions / after lyophilization. The class given is physicochemical. On the procedure: N-formyl-L-4-Cl-kynurenine (10): The Tar13 biochemical assay was scaled to 57.6 mL (six 96 well plates with 100 μL reaction mixture as described in section 8 in each well). After overnight incubation, the assays were pooled together, frozen on dry ice, and lyophilized. The dried sample was redissolved in a 4000 μL of water/methanol (1/1) mixture and subjected to purification by preparative HPLC using method 8. Organic solvent from combined fractions (checked by direct injection into the Bruker Ion Trap mass spectrometer) was removed by evaporation at reduced pressure and the aqueous sample was frozen following by lyophilization. Due to the presence of closely eluting impurities, further purification step using semi-preparative HPLC and method 6 was used. The target peak was collected manually. After removing organic solvent under reduced pressure and lyophilization, the desired product 10 (1.8 mg) was obtained.

Series [7] has as its system Streptomyces rugosporus LL-42D005 PyrH (C5 tryptophan halogenase), SEQ ID NO: 36. The following applies: cited from earlier work.
The subject of series [8] is Kutzneria sp. 744 KtzR (tryptophan halogenase), SEQ ID NO: 40. Particulars: cited from earlier work.
In series [9] the test system is Streptomyces toxytricini NRRL 15443 SttH (tryptophan halogenase), SEQ ID NO: 39. The following applies: cited from earlier work.
The test system of series [10] is Pseudomonas fluorescens PrnA (tryptophan halogenase), SEQ ID NO: 43. Particulars: cited from earlier work.
Series [11] concerns Lechevalieria aerocolonigenes ATCC 39243 RebH (tryptophan halogenase), SEQ ID NO: 44. Particulars: cited from earlier work.
In series [12] the test system is Streptomyces violaceusniger SPC6 Th-Hal (C6 tryptophan halogenase), SEQ ID NO: 38. The following applies: cited from earlier work.
Series [13] has as its target T1, Saccharomonospora sp. CNQ-490 Tar14 (flavin-dependent tryptophan halogenase), wild type, SEQ ID NO: 3 (expressed SEQ ID NO: 4); expressed with cleaved His tag SE (Saccharomonospora piscinae, UniProt W5VG40).
T1 construct: flavin reductase Tar15 and PtdH as helper enzymes
T1 sequence (W5VG40 1-534): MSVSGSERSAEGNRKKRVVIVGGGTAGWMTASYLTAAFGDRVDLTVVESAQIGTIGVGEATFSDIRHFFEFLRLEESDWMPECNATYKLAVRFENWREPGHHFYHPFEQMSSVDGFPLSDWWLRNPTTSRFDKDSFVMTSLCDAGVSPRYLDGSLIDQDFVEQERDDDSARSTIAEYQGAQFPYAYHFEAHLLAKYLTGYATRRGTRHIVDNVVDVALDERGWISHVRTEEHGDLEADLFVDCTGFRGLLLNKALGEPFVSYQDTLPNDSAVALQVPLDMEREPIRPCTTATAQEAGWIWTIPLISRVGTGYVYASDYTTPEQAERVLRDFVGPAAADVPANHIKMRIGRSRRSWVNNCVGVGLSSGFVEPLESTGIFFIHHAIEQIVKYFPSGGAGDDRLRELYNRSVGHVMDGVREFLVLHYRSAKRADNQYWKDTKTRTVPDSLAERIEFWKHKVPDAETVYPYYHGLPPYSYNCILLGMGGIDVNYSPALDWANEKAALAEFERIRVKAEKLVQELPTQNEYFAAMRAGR
Description: Kinetic characterization of Tar14-catalyzed chlorination of L-tryptophan. Type of series: biochemical. Particulars: Tar14, L-Trp chlorination, 30° C., pH 7.6.
From the text: (§3) To determine kinetic parameters for Tar14-catalyzed chlorination of L-tryptophan, phenol was first tested as an internal standard for quantification of the product (L-6-chlorotryptophan) formation. An HPLC method that gives separation of substrate/product/internal standard peaks (method 4) was developed (FIGS. 10A and 108). It was also verified that activity of Tar14 was not affected by the presence of phenol in the reaction mixture. Using commercial standard of L-6-chlorotryptophan and phenol mixed at known concentrations, a calibration curve was built (FIGS. 10A and 10B).
(§4) Tar14 reaction mixture of total volume 100 μL in 1.5 mL Eppendorf tube was composed of the following components:
(§5) Buffer (10 mM Tris, 10% glycerol, pH 7.6) up to 100 μL
as §2
(§6) The reactions were incubated at 30° C. for 5, 10, 25, 45, 60, 120, and 240 min, after which the assays were quenched by addition of equal volume of HPLC grade methanol and frozen at −70° C. till further analysis by HPLC. All assays were performed in triplicates for each substrate concentration and every time point. In parallel, for each time point and substrate concentration, assays with no added phenol and with no added enzyme were used as controls.
(§7) Product formation was quantitated by calculating the ratio of peak areas of product to internal standard and fitting that value to a calibration curve. […]

Substrate in series [14]: N[C@@H](Cc1c[nH]c2ccccc12)C(=O)O
The series is described as above. The following applies: other: Tar14, L-Trp chlorination, 30° C., pH 7.6. The class given is biochemical, Saccharomonospora sp. CNQ-490.
From the text: as §3, §4, §5, §2, §6, §7

As usually defined, the Km is the substrate concentration at which the rate is half of its maximum. By kcat is commonly meant the number of substrate molecules converted per active site and unit of time at saturation.

Several values for one entry are separate records, joined by “and”; a condition that tells them apart may be missing. Equal values may be shown once. Read-outs that look alike come from different tables or passages of the source.

For `N[C@@H](Cc1c[nH]c2ccccc12)C(=O)O` [Compound 4, L-tryptophan], the “Conversion/activity as substrate for Tar13” value in [1] is “only trace activity”. Further, the “Enzyme assays, % conversion, Tar13” value in series [1] (substrate 0.25 mM, Tar13 20 μM, overnight at 30° C.) was determined as 15%. Besides, the “Enzyme assays, % conversion, Tar14, Br^−” value in series [2] (KBr 100 mM, substrate 0.25 mM, Tar14 5 μM, 30° C., 4 h) is reported as 100%. In addition, the “Enzyme assays, % conversion, Tar14, Cl^−” value in series [2] (NaCl 100 mM, substrate 0.25 mM, Tar14 5 μM, 30° C., 4 h) was 100%. The “Iodination by Tar14” value in [2] (incubated with iodide) was “No iodinated tryptophan products were detected”. Further, the “Enzyme assays, % conversion, Tar16” value in [3] stood at 100%. For the same molecule, the “Production of L-4-Cl-Kyn from L-Trp in one-pot reaction” value in [4] was “below 1%”. Also, the “Feeding, % incorporation, A1 + A13 domain” value in series [5] is under 5%.

As to `N[C@@H](CC(=O)c1ccc(Cl)cc1NC=O)C(=O)O` [Compound 10, N-formyl-L-4-Cl-kynurenine], the “Stability: deformylation to L-4-Cl-Kyn (1)” value in series [6] is listed as “partial deformylation”.

Consider `N[C@@H](Cc1c[nH]c2ccccc12)C(=O)O` [L-Trp, L-tryptophan], for which the Km in series [7] was 15.2 ± 4.2 µM; in [8], 34.1 ± 2.1 µM; in [9], 25.3 ± 3.2 µM; in [10] it was 20.7 ± 0.1 µM; in series [11], 28.7 ± 1.3 µM; in series [12] (30° C.) it was 12.2 ± 1.8 µM. The Km in [12] (45° C.) was 20.4 ± 1.3 µM. Further, the kcat in [7] was 0.04 ± 0.0067 s⁻¹; in [8] it was 0.0067 ± 0.0017 s⁻¹; in series [9], 0.0283 ± 0.0017 s⁻¹; in series [10], 0.0183 ± 0.0017 s⁻¹; in series [11] it was 0.01 ± 0.0017 s⁻¹; in series [12] (30° C.), 0.0717 ± 0.0083 s⁻¹. The kcat is 0.085 ± 0.0067 s⁻¹ in [12] (45° C.); 0.0067 s⁻¹ and 0.007 ± 0.00083 s⁻¹ in series [13].

B1: Saccharomonospora sp. CNQ-490 Tar14 (flavin-dependent tryptophan halogenase), wild type, SEQ ID NO: 3 (expressed SEQ ID NO: 4; expressed with cleaved His tag … (protein)
chain: MSVSGSERSAEGNRKKRVVIVGGGTAGWMTASYLTAAFGDRVDLTVVESAQIGTIGVGEATFSDIRHFFEFLRLEESDWMPECNATYKLAVRFENWREPGHHFYHPFEQMSSVDGFPLSDWWLRNPTTSRFDKDSFVMTSLCDAGVSPRYLDGSLIDQDFVEQERDDDSARSTIAEYQGAQFPYAYHFEAHLLAKYLTGYATRRGTRHIVDNVVDVALDERGWISHVRTEEHGDLEADLFVDCTGFRGLLLNKALGEPFVSYQDTLPNDSAVALQVPLDMEREPIRPCTTATAQEAGWIWTIPLISRVGTGYVYASDYTTPEQAERVLRDFVGPAAADVPANHIKMRIGRSRRSWVNNCVGVGLSSGFVEPLESTGIFFIHHAIEQIVKYFPSGGAGDDRLRELYNRSVGHVMDGVREFLVLHYRSAKRADNQYWKDTKTRTVPDSLAERIEFWKHKVPDAETVYPYYHGLPPYSYNCILLGMGGIDVNYSPALDWANEKAALAEFERIRVKAEKLVQELPTQNEYFAAMRAGR
notes: flavin reductase Tar15 and PtdH as helper enzymes
B1: in series [14], the Km was 12.0 ± 1.9 µM.

The record behind these values is patent publication US20220290196A1, “GENETICALLY ENGINEERED MICROBES AND BIOSYNTHETIC METHODS” (The Regents of the University of California, priority 2019, published 2022).
